A value given as a limit tells only on which side of the number the result lay.

Series [1] concerns BHK-21 cells. As to the kind of experiment: Anti-fibrosis activity test: inhibition of BHK-21 cell proliferation (CCK-8). In kind it is cell-based. Conditions: Mesocricetus auratus, BHK-21, 48 h. The gist of the method:
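Proliferation of BHK-21 cells is measured by CCK-8 at 450 nm following 48 h compound exposure at several concentrations. Inhibition is expressed relative to blank control and IC50 is computed from it.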

The subject of series [2] is human lung fibroblasts HFL1. Briefly: Anti-fibrosis activity test: inhibition of proliferation of human lung fibroblasts HFL1 (CCK-8). In kind it is cell-based. To be noted: Homo sapiens, HFL1, 48 h. The essentials:
(§1)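 Read-out: absorbance at 450 nm after 2 h with CCK-8, following 48 h of compound exposure of adhered cells (2×10^4 cells/mL, 24 h attachment, 37° C, 5% CO2). Proliferation inhibition was taken relative to the blank control, and IC50 values were calculated from it.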

For series [3], the system named is human hepatic stellate cells LX-2. Briefly: Anti-fibrosis activity test: inhibition of proliferation of human hepatic stellate cells LX-2 (CCK-8). Conditions: Homo sapiens, 48 h. In kind it is cell-based. The essentials: as §1
The subject of series [4] is human fibrosarcoma cells HT-1080. As to the kind of experiment: Anti-fibrosis activity test: inhibition of proliferation of human fibrosarcoma cells HT-1080 (CCK-8). To be noted: Homo sapiens, HT-1080, 48 h. In kind it is cell-based. The gist of the method: as §1
Series [5] deals with human dermal fibroblasts CCC-ESF-1. Briefly: Anti-fibrosis activity test: inhibition of proliferation of human dermal fibroblasts CCC-ESF-1 (CCK-8). In kind it is cell-based. To be noted: Fibroblast. The gist of the method: as §1
Series [6] relates to human embryonic lung fibroblast IMR-90. As to the kind of experiment: Anti-fibrosis activity test: inhibition of proliferation of human embryonic lung fibroblast IMR-90 (CCK-8). In kind it is cell-based. The essentials:
as §1

For series [7], the system named is cardiac fibroblast RAT-iCell-C002. Briefly: Anti-fibrosis activity test: inhibition of proliferation of cardiac fibroblast RAT-iCell-C002 (CCK-8). To be noted: Cardiac fibroblast, 48 h. In kind it is cell-based. The essentials: as §1
Series [8] concerns NF-κB. Briefly: Immunological activity test: inhibition of NF-κB activity. In kind it is cell-based. Conditions: initial concentration of 30 μM; a/b isomers given as first/second symbol; read-out: IC50 (μM), inhibitory activity against NF-κB. The essentials: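 IC50 values come from further analysis of the data after an initial test at a single 30 μM concentration. Parthenolide served as the reference inhibitor.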

In series [9] the test system is mouse macrophages (RAW264.7). Briefly: Lipopolysaccharide-induced NO secretion in macrophages (Griess). In kind it is cell-based. To be noted: Mus musculus, RAW264.7, 24 h, RAW264.7, LPS 1 μg/ml, a/b isomers given as first/second symbol, read-out: IC50 (μM), inhibition of lipopolysaccharide-induced NO secretion in macrophages. The gist of the method: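 Absorbance at 548 nm after Griess reagent addition to culture supernatant gave NO content; inhibition rate was derived relative to blank control. Cells were mouse RAW264.7 macrophages exposed to compounds and 1 μg/ml LPS for 24 hours.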

For series [10] the following is noted: pirfenidone, stated as known property; cited from earlier work.
Setting [11] is: Homo sapiens, CCC-ESF-1 cells, 48 h, CCK-8.
[12] abbreviates: Homo sapiens, IMR-90 cells, 48 h, CCK-8.

In general, IC50 refers to the point on the concentration scale where inhibition reaches its midpoint. Regarding `Cc1cc2n(c1)C(=O)c1nc3ccccc3c(O)c1-2` [Compound 798b, 11-hydroxy-2-methyl-5H-pyrrolizino[2,1-b]quinolin-5-one], the IC50 in [1] (48 h, CCK-8) is 0.05 to 5 mM; in series [2] (HFL1 cells, 48 h, CCK-8), 0.05 to 5 mM; in [3] (LX-2, 48 h, LX-2 cells, CCK-8) it was 0.05 to 5 mM; in series [4] (HT-1080 cells, 48 h, CCK-8), 0.05 to 5 mM; in series [5] (setting [11]), 0.05 to 5 mM; in series [6] (setting [12]), 0.05 to 5 mM. For the same compound, the IC50 in series [7] (RAT-iCell-C002 cells, CCK-8) lay within 0.05 to 5 mM; in [8] it was 1 to 10 µM; in series [9], 1 to 10 µM.
For `Cc1ccc2n1C(=O)c1[nH]c3ccccc3c(=O)c1-2` [Compound 799a, 3-Methyl-5H-pyrrolizino[2,1-b]quinoline-5,11(6H)-dione], the IC50 in series [1] (48 h, CCK-8) is 0.05 to 5 mM; in series [2] (HFL1 cells, 48 h, CCK-8) it was 0.05 to 5 mM; in series [3] (LX-2, 48 h, LX-2 cells, CCK-8), 0.05 to 5 mM; in [4] (HT-1080 cells, 48 h, CCK-8) it was less than 0.05 mM; in series [5] (setting [11]) it was 0.05 to 5 mM; in series [6] (setting [12]), 0.05 to 5 mM. The IC50 in series [7] (RAT-iCell-C002 cells, CCK-8) fell in the range of 0.05 to 5 mM; in [8], 1 to 10 µM; in series [9], 1 to 10 µM.
As to `Cc1ccc2n1C(=O)c1nc3ccccc3c(O)c1-2` [Compound 799b, 11-hydroxy-3-methyl-5H-pyrrolizino[2,1-b]quinolin-5-one], the IC50 in series [1] (48 h, CCK-8) is 0.05 to 5 mM; in series [2] (HFL1 cells, 48 h, CCK-8), 0.05 to 5 mM; in series [3] (LX-2, 48 h, LX-2 cells, CCK-8), 0.05 to 5 mM; in [4] (HT-1080 cells, 48 h, CCK-8) it was 0.05 to 5 mM; in [5] (setting [11]) it was 0.05 to 5 mM; in series [6] (setting [12]), 0.05 to 5 mM. Also, the IC50 in series [7] (RAT-iCell-C002 cells, CCK-8) was in the range of 0.05 to 5 mM; in series [8], 1 to 10 µM; in [9], 1 to 10 µM.
Regarding `Cc1ccc(=O)n(-c2ccccc2)c1` [pirfenidone, reference compound], the IC50 in series [1] (CCK-8, 48 hours after administration) fell in the range of 20 to 100 mM; in [2] (human lung fibroblasts HFL1, CCK-8, 48 hours) it was 5 to 20 mM; in series [3] (human hepatic stellate cells LX-2, CCK-8, 48 hours), 20 to 100 mM; in series [4] (human fibrosarcoma cells HT-1080, CCK-8, 48 hours), 20 to 100 mM; in series [5] (human dermal fibroblasts CCC-ESF-1, CCK-8, 48 hours), 20 to 100 mM; in series [6] (human embryonic lung fibroblast IMR-90, CCK-8, 48 hours), 20 to 100 mM. The IC50 in series [7] (cardiac fibroblast RAT-iCell-C002, CCK-8, 48 hours) was 20 to 100 mM. Further, the phototoxic reactions entry in [10] is recorded as “phototxic reactions, which are produced by pirfenidone”.

The values above are taken from US11040028B2, “Penicinotam derivative, preparation method and use thereof” (OCEAN UNIVERSITY OF CHINA, priority 2017, dated 2021).
